Measurements from patent US11337983B2, “Dactinomycin compositions and methods for the treatment of acute myeloid leukemia” (priority 2015, dated 2022).
Entries after “also recorded” stand apart in the source; their conditions may differ. *1 amine or outer side, *2 acyl side, *3 side chain or, on linkers, in order; H or OH if unused. Where a SMILES comes first, the peptide text is derived from it. Bridges are numbered along the chain shown (N, C = ends). Roman numbers before positions name the chains, in order. [ ]: non-standard residue; d: D form. Actinocin(9to1) = Cc1c2oc3c(C)ccc(C(=O)[*:1])c3nc-2c(C(=O)[*:2])c(N)c1=O; NMeV = CN[CH](C(=O)O)C(C)C; Sar = CNCC(=O)O

Legend:
Assay type in all cases: in vivo, human
[1] = tested on: NPM1-mutated AML without FLT3 internal tandem duplication mutations; test: Dactinomycin single-agent treatment of a patient with NPM1-mutated AML (response)
Procedure: (§1) A patient with NPM1-mutated AML without FLT3 internal tandem duplication mutations was treated with dactinomycin. Because dactinomycin lacks cardiotoxicity, a patient was selected for whom intensive chemotherapy was not appropriate owing to a low left ventricular ejection fraction (35%). […] Therefore, with the patient's consent, dactinomycin was administered as an off-label single agent (approved by the institutional review board at Perugia Hospital), at a dose of 12.5 μg per kilogram of body weight per day for 5 consecutive days, as recommended for low-risk gestational trophoblastic tumors. […] Four more cycles were administered for a total of six cycles, at intervals of 3 to 4 weeks.
The progressive decrease in NPM1 mutant transcripts (until the achievement of negativity for minimal residual disease) is reminiscent of dactinomycin-induced normalization of serum levels of human chorionic gonadotropin in patients with gestational trophoblastic tumors.

[2] = Adverse events and hematologic toxic effects during dactinomycin treatment of the patient
Procedure: as §1
The number of days with a hemoglobin level of less than 8 g per deciliter, severe thrombocytopenia (a platelet count of <20,000 per cubic millimeter), and severe neutropenia (a neutrophil count of <500 per cubic millimeter) are reported for cycles 1 through 6. A total of 8 units of red cells and 4 units of platelets were transfused during cycle 1, and 4 units of red cells and 1 unit of platelets were transfused during cycle 2.

[3] = tested on: refractory or relapsed NPM1-mutated AML; test: Dactinomycin treatment of six additional patients with refractory or relapsed NPM1-mutated AML; details: 15.0 μg per kilogram per day for 5 consecutive days, cycles
Procedure: Six additional patients with refractory or relapsed NPM1-mutated AML were treated with cycles of dactinomycin at a dose of 15.0 μg per kilogram per day for 5 consecutive days.

[4] = after two cycles of dactinomycin

## Nc1ncn([C@@H]2O[C@H](CO)[C@@H](O)[C@H]2O)c(=O)n1 [azacitidine]
[1]; initial single cycle of azacitidine, before dactinomycin
  Course of leukemia after prior therapy: Leukemia had progressed

## Cc1c2oc3c(C)ccc(C(=O)NC4C(=O)NC(C(C)C)C(=O)N5CCCC5C(=O)N(C)CC(=O)N(C)C(C(C)C)C(=O)OC4C)c3nc-2c(C(=O)NC2C(=O)NC(C(C)C)C(=O)N3CCCC3C(=O)N(C)CC(=O)N(C)C(C(C)C)C(=O)OC2C)c(N)c1=O (stereo not shown) [dactinomycin, 2-amino-N,N′-bis(hexadecahydro-2,5,9-trimethyl-6,13-bis(1-methylethyl)-1,4,7,11,14-pentaoxo-1H-pyrrolo(2,1-I)(1,4,7,10,13)oxatetra-azacyclohexadecin-10-yl)-4,6-dimethyl-3-oxo-3H-phenoxazine-1,9-dicarboxamide] (I: TVP[Sar][NMeV] / II: TVP[Sar][NMeV]; ester I:1-I:C, II:1-II:C; linker I:N-II:N via Actinocin(9to1); configuration not given here)
[2]; after cycle 2 (cycles 3 through 6)
  Need for red-cell or platelet transfusions: no need for blood transfusions; also recorded: No red-cell or platelet transfusions were necessary
[2]; cycle 1
  Number of days with Hb <8 g/dl: 3 days
  Number of days with PLT <20000/mm^3: 13 days
  Number of days with PMN <500/mm^3: 26 days
  Platelets transfused: 4 units
  Red cells transfused: 8 units
[2]; cycle 2
  Number of days with Hb <8 g/dl: 3 days
  Number of days with PLT <20000/mm^3: 2 days
  Number of days with PMN <500/mm^3: 6 days
  Platelets transfused: 1 unit
  Red cells transfused: 4 units
[2]; cycle 3
  Number of days with Hb <8 g/dl: 0 days
  Number of days with PLT <20000/mm^3: 0 days
  Number of days with PMN <500/mm^3: 4 days
[2]; cycle 4
  Number of days with Hb <8 g/dl: 0 days
  Number of days with PLT <20000/mm^3: 0 days
  Number of days with PMN <500/mm^3: 4 days
[2]; cycle 5
  Number of days with Hb <8 g/dl: 0 days
  Number of days with PLT <20000/mm^3: 0 days
  Number of days with PMN <500/mm^3: 4 days
[2]; cycle 6
  Number of days with Hb <8 g/dl: 0 days
  Number of days with PLT <20000/mm^3: 0 days
  Number of days with PMN <500/mm^3: 3 days
[2]; during cycle 2
  Skin adverse event: superficial skin erosions
[2]; during cycles 1 and 2
  Febrile neutropenia and thrombocytopenia (adverse event grade): 4 grade
[2]; during cycles 1 through 3
  Oral mucositis (adverse event grade): 2 grade
[1]; 12.5 μg per kilogram per day for 5 consecutive days per cycle, patient
  Morphologic and immunohistochemical (hematologic) complete remission: hematologic complete remission; also recorded: complete remission was achieved after two cycles of therapy
[1]; [4]
  Immunostaining with anti-NPM1 monoclonal antibody of bone marrow cells: nucleus-restricted positivity for NPM1
  Leukemic blasts in bone marrow aspirate (MGG staining): less than 5%
[1]; bone marrow samples, 12.5 μg/kg/day x 5 days per cycle
  Molecular complete remission / negativity for minimal residual disease (quantitative RT-PCR for mutant copies of NPM1): Negativity for minimal residual disease was achieved after the fourth cycle; also recorded: molecular complete remission after the fourth cycle
[1]; during dactinomycin treatment
  Mutant copies of NPM1 in bone marrow samples (RT-PCR, copies per 100 copies of Abl): progressive reduction in copies
[1]; six cycles at intervals of 3 to 4 weeks
  Duration of morphologic and molecular complete remission: 14 months
[3]
  Hematologic complete remission (patients of six treated): achieved in two patients
